Reference: ChEMBL document CHEMBL1147077, “Induced-fit tightens pleuromutilins binding to ribosomes and remote interactions enable their selectivity” (Proc Natl Acad Sci U S A, 2007)

Experiments:
Streptococcus pyogenes = experiment: Antimicrobial activity against Streptococcus pyogenes; type: functional
Staphylococcus aureus = experiment: Antimicrobial activity against Staphylococcus aureus; type: functional
[1] = Displacement of [3H]SB-2587891 from Escherichia coli ribosomes; type: subcellular, Ribosome

Row | MIC (Streptococcus pyogenes) [µg/mL] | MIC (Staphylococcus aureus) [µg/mL] | Structure (SMILES) | Kd [1] [nM]
1 | ≤ 0.5 | ≤ 0.5 | C=C[C@]1(C)C[C@@H](OC(=O)CS[C@@H]2C[C@H]3CC[C@@H](C2)N3C)[C@]2(C)[C@H](C)CC[C@]3(CCC(=O)[C@H]32)[C@@H](C)[C@@H]1O [RETAPAMULIN] | 2
2 | – | – | C=C[C@]1(C)C[C@@H](OC(=O)CSC2CCNCC2)[C@]2(C)[C@H](C)CC[C@]3(CCC(=O)[C@H]32)[C@@H](C)[C@@H]1O | 7.5
3 | – | – | C=C[C@]1(C)C[C@@H](OC(=O)NC(=O)c2ccc(N)nn2)[C@]2(C)[C@H](C)CC[C@]3(C[C@H](O)C(=O)[C@H]32)[C@@H](C)[C@@H]1O | 11.1
